pIC50: −log10 of the molar value.
Target: T1, human MRGPRX2 (Homo sapiens, UniProt Q96LB1)
T1 sequence (Q96LB1 1-330): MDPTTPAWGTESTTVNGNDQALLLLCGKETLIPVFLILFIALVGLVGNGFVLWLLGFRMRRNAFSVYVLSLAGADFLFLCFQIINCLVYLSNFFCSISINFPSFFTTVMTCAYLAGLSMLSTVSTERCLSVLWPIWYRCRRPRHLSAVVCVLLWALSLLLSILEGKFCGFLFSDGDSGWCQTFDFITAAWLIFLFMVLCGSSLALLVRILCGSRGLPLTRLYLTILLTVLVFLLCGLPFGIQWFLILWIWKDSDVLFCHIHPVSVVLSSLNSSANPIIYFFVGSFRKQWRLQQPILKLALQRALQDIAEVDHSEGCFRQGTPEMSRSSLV
Assay: Ca2+ mobilization assay (FLIPR TETRA): inhibition of Cortistatin-14 mediated MRGPRX2 activation

Compound | pIC50
CC(C(=O)Nc1ccc(C(O)c2ccc(F)cc2)cn1)N1CCC(F)(F)[C@@H](c2cc[n+]([O-])cc2)C1 (stereo partly drawn) [Example 129, 4-((3S)-4,4-difluoro-1-(1-((5-((4-fluorophenyl) (hydroxy)methyl)pyridin-2-yl)amino)-1-oxopropan-2-yl)piperidin-3-yl)pyridine 1-oxide] | 4.50 to 5.50
C[C@@H](C(=O)Nc1ccc(Oc2ncc(F)cc2F)cn1)[C@H]1CCC[C@@H](c2ccc(=O)[nH]c2)C1 [Example 285, (R)-N-(5-((3,5-difluoropyridin-2-yl)oxy)pyridin-2-yl)-2-((1S,3R)-3-(6-oxo-1,6-dihydropyridin-3-yl)cyclohexyl)propanamide] | ≥ 8.00
CC(C(=O)Nc1ccc(Cc2ncco2)cn1)N1CCC(F)(F)[C@@H](c2ccc(=O)[nH]c2)C1 (stereo partly drawn) [Example 53, 2-((S)-4,4-difluoro-3-(6-oxo-1,6-dihydropyridin-3-yl)piperidin-1-yl)-N-(5-(oxazol-2-ylmethy)pyridin-2-yl)propanamide] | 4.50 to 5.50
CC(C(=O)Nc1ccc(CCC2CC2)cn1)N1CCC(F)(F)[C@@H](c2ccc(=O)[nH]c2)C1 (stereo partly drawn) [Example 21, N-(5-(2-cyclopropylethyl)pyridin-2-yl)-2-((S)-4,4-difluoro-3-(6-oxo-1,6-dihydropyridin-3-yl)piperidin-1-yl)propanamide] | 7.00 to 8.00
CC(C(=O)Nc1ccc(F)cn1)N1CCC(F)(F)C(c2c[nH]c(=O)c(C(N)=O)c2)C1 (stereo not drawn) [Example 253] | 5.50 to 7.00
C[C@@H](C(=O)Nc1ccc(Cc2ccncc2)cn1)N1CCC(F)(F)[C@@H](c2ccc(=O)[nH]c2)C1 [Example 13, (S)-2-((S)-4,4-difluoro-3-(6-oxo-1,6-dihydropyridin-3-yl)piperidin-1-yl)-N-(5-(pyridin-4-ylmethyl)pyridin-2-yl)propanamide] | 7.00 to 8.00
CC(C(=O)Nc1ccc(Oc2ccc(F)cc2)nn1)N1CCC(F)(F)[C@@H](c2ccc(=O)[nH]c2)C1 (stereo partly drawn) [Example 63, 2-((S)-4,4-difluoro-3-(6-oxo-1,6-dihydropyridin-3-yl)piperidin-1-yl)-N-(6-(4-fluorophenoxy)pyridazin-3-yl)propanamide] | 5.50 to 7.00
C[C@@H](C(=O)Nc1ccc(OCC2CC2)cn1)N1CCC(F)(F)[C@@H](c2c[nH]c(=O)c(N)n2)C1 [Example 105, (S)-2-((R)-3-(6-amino-5-oxo-4,5-dihydropyrazin-2-y1)-4,4-difluoropiperidin-l-y1)-N-(5-(cyclopropylmethoxy)pyridin-2-yl)propanamide] | 7.00 to 8.00
CC(C)(C(=O)Nc1ccc(OCC2CC2)cn1)N1CCC(F)(F)[C@@H](c2ccc(=O)[nH]c2)C1 (single isomer, unassigned) [Example 183] | 5.50 to 7.00
Cc1nc(-c2ccc(Oc3ccc(NC(=O)[C@H](C)N4CCC(F)(F)[C@@H](c5ccc(=O)[nH]c5)C4)nc3)c(F)c2)cs1 [Example 99, (S)-2-((S)-4,4-difluoro-3-(6-oxo-1,6-dihydropyridin-3-yl)piperidin-1-yl)-N-(5-(2-fluoro-4-(2-methylthiazol-4-yl)phenoxy)pyridin-2-yl)propanamide] | 7.00 to 8.00
C[C@@H](C(=O)Nc1ccc2c(n1)CN(C1CC1)C2)N1CCC(F)(F)[C@@H](c2ccc(=O)[nH]c2)C1 [Example 32, (S)-N-(6-cyclopropyl-6,7-dihydro-5H-pyrrolo[3,4-b]pyridin-2-yl)-2-((S)-4,4-difluoro-3-(6-oxo-1,6-dihydropyridin-3-yl)piperidin-1-yl)propanamide] | 5.50 to 7.00
C[C@@H](C(=O)Nc1ccc(OCC(C)(C)C)nn1)N1CCC(F)(F)[C@@H](c2ccc(=O)[nH]c2)C1 [Example 89, (S)-2-((S)-4,4-difluoro-3-(6-oxo-1,6-dihydropyridin-3-yl)piperidin-1-yl)-N-(6-(neopenlyloxy)pyridazin-3-yl)propanamide] | 5.50 to 7.00
C[C@@H](C(=O)Nc1ccc(Cl)cn1)N1CCC(F)(F)[C@@H](c2c[nH]c(=O)c(N)c2)C1 [Example 141, (S)-2-((S)-3-(5-amino-6-oxo-1,6-dihydropyridin-3-yl)-4,4-difluoropiperidin-1-yl)-N-(5-chloropyridin-2-yl)propanamide] | 5.50 to 7.00
C[C@@H](C(=O)Nc1ccc(F)cn1)N1CCC(F)(F)[C@@H](c2cc[n+]([O-])c(CC(F)(F)F)c2)C1 [Example 219] | 7.00 to 8.00
C[C@@H](C(=O)Nc1ccc(Oc2ccc(F)cc2F)cn1)[C@H]1CCC[C@@H](c2cc[n+]([O-])cc2)C1 [Example 289, 4-((1R,3S)-3-((R)-1-((5-(2,4-difluorophenoxy)pyridin-2-yl)amino)-1-oxopropan-2-yl)cyclohexyl)pyridine 1-oxide] | ≥ 8.00
C[C@@H](C(=O)Nc1ccc(F)cn1)N1CCC(F)(F)[C@@H](c2c[nH]c(=O)c(CC(F)(F)F)c2)C1 [Example 151, (S)-2-((S)-4,4-difluoro-3-(6-oxo-5-(2,2,2-trifluoroethyl)-1,6-dihydropyridin-3-yl)piperidin-1-yl)-N-(5-fluoropyridin-2-yl)propanamide] | 7.00 to 8.00
C[C@@H](C(=O)Nc1ccc(Oc2ccc(F)cc2CO)cn1)N1CCC(F)(F)[C@@H](c2ccc(=O)[nH]c2)C1 [Example 271, (S)-2-((S)-4,4-difluoro-3-(6-oxo-1,6-dihydropyridin-3-yl)piperidin-1-yl)-N-(5-(4-fluoro-2-(hydroxymethyl)phenoxy)pyridin-2-yl)propanamide] | 7.00 to 8.00
CC(C(=O)Nc1ccc(Oc2ccc(F)cc2)cn1)C1CCC(F)(F)C(c2ccc(=O)[nH]c2)C1 (stereo not drawn) [Example 278, 2-(4,4-difluoro-3-(6-oxo-1,6-dihydropyridin-3-yl)cyclohexyl)-N-(5-(4-fluorophenoxy)pyridin-2-yl)propanamide] | ≥ 8.00
C[C@@H](C(=O)Nc1ccc(OCC2CC2)cn1)N1CCC(F)(F)[C@@H](c2c[nH]c(=O)c(N)c2)C1 [Example 138, (S)-2-((S)-3-(5-amino-6-oxo-1,6-dihydropyridin-3-yl)-4,4-difluoropiperidin-1-yl)-N-(5-(cyclopropylmethoxy)pyridin-2-yl)propanamide] | 7.00 to 8.00
C[C@@H](C(=O)Nc1ccc(Cl)cn1)N1CCC[C@@H](c2c[nH]c(=O)c(N)n2)C1 (single isomer, unassigned) [Example 174] | 5.50 to 7.00
C[C@@H](C(=O)Nc1ccc(Oc2ncc(F)cc2F)cn1)N1CCC(F)(F)[C@@H](c2cc[n+]([O-])cc2)C1 [Example 116] | 7.00 to 8.00
C[C@@H](C(=O)Nc1ccc(Oc2ccc(F)cc2)cn1)N1CCC(F)(F)[C@@H](c2ccc(=O)[nH]c2)C1 [Example 5, (S)-2-((S)-4,4-difluoro-3-(6-oxo-1,6-dihydropyridin-3-yl)piperidin-1-yl)-N-(5-(4-fluorophenoxy)pyridin-2-yl)propanamide] | ≥ 8.00
CC(C(=O)Nc1ccc(Oc2ccncc2)cn1)N1CCC(F)(F)[C@@H](c2ccc(=O)[nH]c2)C1 (stereo partly drawn) [Example 64, 2-((S)-4,4-difluoro-3-(6-oxo-1,6-dihydropyridin-3-yl)piperidin-1-yl)-N-(5-(pyridin-4-yloxy)pyridin-2-yl)propanamide] | 5.50 to 7.00
C[C@@H](C(=O)Nc1ccc(Oc2ccc(F)cc2)cn1)N1CCC(F)(F)[C@@H](c2c[nH]c(=O)c(CN)c2)C1 [Example 204, (S)-2-((S)-3-(5-(aminomethyl)-6-oxo-1,6-dihydropyridin-3-yl)-4,4-difluoropiperidin-1-yl)-N-(5-(4-fluorophenoxy)pyridin-2-yl)propanamide] | ≥ 8.00

Source: patent US11976057B2, “MrgX2 antagonists” (GlaxoSmithKline Intellectual Property Development Limited, priority 2020, dated 2024)
